Data: patent publication US20230227398A1, “MESCALINE DERIVATIVES WITH MODIFIED ACTION” (Mind Medicine, Inc., priority 2021, published 2023)
Entries after “also recorded” stand apart in the source; their conditions may differ.

Assays:
monoamine transporters = assay: Inhibition of monoamine transport (in vitro profiling); assay type: biochemical
From the text: Activity of compounds at monoamine transporters are thought to mediate MDMA-like empathogenic effects (Hysek et al., 2012). Importantly, mescaline is a very weak 5-HT2A receptor ligand and high doses are needed to induce psychoactive effects in humans. However, despite its low potency, mescaline can have extraordinarily strong psychedelic effects in humans at high doses and the same is likely the case for the substances developed within the present invention although 10-20-fold higher potency is also possible in some compounds, to be evaluated in detail clinically. Key results of pharmacological profiling of the compounds described herein were: […]

[1] = humans, cited from earlier work
[2] = biological target: T1, serotonin 5-HT2A receptor (Homo sapiens, UniProt P28223); settings: background art; cited from earlier work
T1 sequence (P28223 whole entry): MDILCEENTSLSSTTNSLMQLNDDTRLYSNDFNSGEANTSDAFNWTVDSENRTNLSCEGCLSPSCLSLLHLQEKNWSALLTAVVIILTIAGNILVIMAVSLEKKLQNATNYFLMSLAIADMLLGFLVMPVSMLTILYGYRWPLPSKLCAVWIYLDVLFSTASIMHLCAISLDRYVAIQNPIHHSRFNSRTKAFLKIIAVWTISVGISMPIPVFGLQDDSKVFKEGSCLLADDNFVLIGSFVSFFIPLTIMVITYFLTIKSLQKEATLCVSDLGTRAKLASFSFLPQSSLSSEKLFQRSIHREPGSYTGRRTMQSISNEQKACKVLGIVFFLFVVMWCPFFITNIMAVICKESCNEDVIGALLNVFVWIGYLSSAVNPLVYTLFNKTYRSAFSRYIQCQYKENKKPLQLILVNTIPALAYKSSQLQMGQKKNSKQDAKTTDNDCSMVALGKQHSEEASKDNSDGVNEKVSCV

5-HT transporter (SERT) = 5-HT transporter (SERT) (Homo sapiens, UniProt P31645); settings: cited from earlier work
Sequence of 5-HT transporter (SERT) (P31645 whole entry): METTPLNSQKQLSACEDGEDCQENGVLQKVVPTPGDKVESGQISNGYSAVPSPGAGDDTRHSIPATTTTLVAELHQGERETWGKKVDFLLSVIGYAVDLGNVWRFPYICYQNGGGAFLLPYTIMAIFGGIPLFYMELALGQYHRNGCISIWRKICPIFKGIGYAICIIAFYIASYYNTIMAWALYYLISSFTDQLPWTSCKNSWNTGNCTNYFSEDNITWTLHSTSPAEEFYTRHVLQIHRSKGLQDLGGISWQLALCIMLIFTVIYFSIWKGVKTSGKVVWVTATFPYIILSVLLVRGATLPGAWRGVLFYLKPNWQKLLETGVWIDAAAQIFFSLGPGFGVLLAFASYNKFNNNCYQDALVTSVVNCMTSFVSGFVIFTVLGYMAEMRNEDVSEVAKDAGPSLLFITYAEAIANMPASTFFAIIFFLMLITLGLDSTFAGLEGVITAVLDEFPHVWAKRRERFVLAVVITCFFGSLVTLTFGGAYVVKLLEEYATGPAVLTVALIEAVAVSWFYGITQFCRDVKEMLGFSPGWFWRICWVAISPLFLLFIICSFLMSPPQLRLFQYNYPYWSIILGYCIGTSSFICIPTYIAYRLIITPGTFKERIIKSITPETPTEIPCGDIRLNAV

D2 receptors = D2 receptors (Homo sapiens, UniProt P14416); settings: cited from earlier work
Sequence of D2 receptors (P14416 whole entry): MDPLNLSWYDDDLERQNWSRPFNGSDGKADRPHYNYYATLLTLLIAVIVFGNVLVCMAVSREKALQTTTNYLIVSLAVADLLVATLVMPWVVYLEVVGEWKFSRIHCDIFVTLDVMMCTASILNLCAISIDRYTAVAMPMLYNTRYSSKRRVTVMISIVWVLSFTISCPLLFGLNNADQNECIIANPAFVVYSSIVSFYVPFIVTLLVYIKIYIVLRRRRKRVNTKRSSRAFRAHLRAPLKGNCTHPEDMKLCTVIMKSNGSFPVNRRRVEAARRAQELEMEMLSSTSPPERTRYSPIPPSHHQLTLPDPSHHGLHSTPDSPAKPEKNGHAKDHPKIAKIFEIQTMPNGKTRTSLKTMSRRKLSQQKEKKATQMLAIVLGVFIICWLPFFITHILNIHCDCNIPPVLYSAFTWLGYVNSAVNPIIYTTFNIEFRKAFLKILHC

5-HT2A receptor = 5-HT2A receptor (Homo sapiens, UniProt P28223); settings: cited from earlier work
Sequence of 5-HT2A receptor (P28223 whole entry): as the sequence (P28223 whole entry) above

5-HT1A receptor = biological target: T2, 5-HT1A receptor (Homo sapiens, UniProt P08908); settings: background art; cited from earlier work
T2 sequence (P08908 1-422): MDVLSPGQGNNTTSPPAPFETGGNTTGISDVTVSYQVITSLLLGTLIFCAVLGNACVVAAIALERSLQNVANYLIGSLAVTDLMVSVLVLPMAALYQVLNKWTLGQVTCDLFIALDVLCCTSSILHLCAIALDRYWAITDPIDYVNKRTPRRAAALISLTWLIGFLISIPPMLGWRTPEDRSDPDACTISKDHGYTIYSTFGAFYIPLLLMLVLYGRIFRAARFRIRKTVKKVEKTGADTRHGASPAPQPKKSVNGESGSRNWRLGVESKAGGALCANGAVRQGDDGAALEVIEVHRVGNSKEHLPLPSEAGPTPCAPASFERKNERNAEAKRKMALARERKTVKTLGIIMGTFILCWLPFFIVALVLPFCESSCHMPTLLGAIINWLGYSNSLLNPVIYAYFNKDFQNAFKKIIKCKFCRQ

α2A receptors = biological target: T3, α2A receptors (Homo sapiens, UniProt P08913); settings: background art; cited from earlier work
T3 sequence (P08913 1-465): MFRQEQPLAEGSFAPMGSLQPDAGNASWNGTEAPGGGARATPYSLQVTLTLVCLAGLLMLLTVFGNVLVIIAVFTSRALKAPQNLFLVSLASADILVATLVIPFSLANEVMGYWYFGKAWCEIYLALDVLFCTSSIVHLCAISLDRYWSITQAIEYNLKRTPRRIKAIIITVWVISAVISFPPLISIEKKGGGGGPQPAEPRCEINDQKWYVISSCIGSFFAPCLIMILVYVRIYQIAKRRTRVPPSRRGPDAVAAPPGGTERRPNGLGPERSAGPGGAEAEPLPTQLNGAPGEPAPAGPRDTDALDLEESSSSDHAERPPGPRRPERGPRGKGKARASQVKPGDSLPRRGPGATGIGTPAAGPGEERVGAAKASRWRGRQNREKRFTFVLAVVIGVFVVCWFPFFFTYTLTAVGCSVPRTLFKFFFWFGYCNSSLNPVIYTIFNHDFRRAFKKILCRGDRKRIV

[3] = humans (Charalampous, 1966); cited from earlier work
dopaminergic receptors = assay: Binding to dopaminergic receptors (in vitro profiling); settings: in contrast to LSD
[4] = biological target: T1, serotonin 5-HT2A receptor; assay: 5-HT2A receptor binding (in vitro profiling at key targets)
[5] = Duration of action and potency of mescaline derivatives; parameters: species or system humans; settings: in vivo
From the text: Together, the in vitro profiles of mescaline and its derivatives represented in FIG. 1 compared with that of psilocin and LSD indicate overall psychedelic properties of all compounds but also differences that likely manifest when used in humans. Accordingly, some mescaline derivatives will exert psychedelic acute effect profiles that are more beneficial to some patients including but not limited to: more overall positive effects, more or less perceptual effects, more emotional effects, less anxiety, less cardio-stimulant effects, less adverse effects, less nausea, longer and also shorter effects among other properties and compared to mescaline. Specifically, taken together the pharmacological data and structural specifics on the substances tested herein some compounds are of particular interest. FE and FP have a relatively short duration of action (<6 hours) compared with mescaline and potentially empathogenic MDMA-like effects.
The compounds represented by FIG. 1 act with shorter, with similar or with longer duration of action in human in comparison to the original mescaline molecule. This is triggered by modification of the molecular structure in FIG. 1.

In the case of COc1cc(CCN)cc(OC)c1OC [mescaline], the “inhibition of monoamine transport (in words)” value (monoamine transporters) is given as “did not inhibit monoamine transport”, the “subjective effects last (duration)” value ([1]; dose-dependently) is given as 10 to 16 h and the “subjective effects appear (onset)” value ([1]; psychoactive doses) is given as no more than 30 min. For the same molecule, the subjective effects peak ([1]; psychoactive doses) was 4 h, the “doses needed to induce a full psychedelic experience” value [1] was 200 to 800 mg and the “binding to 5-HT2A receptor (in words)” value [2] was “rather low concentration range”. The “interaction with / inhibition of SERT (in words)” value (5-HT transporter (SERT)) was “do not interact”, the “affinity / activity at D2 receptors (in words)” value (D2 receptors) was “no affinity” and the “agonism / stimulation of the 5-HT2A receptor (in words)” value (shortened to “agonism / stimulation”) (5-HT2A receptor) was “agonists”. For the same molecule, the “binding to 5-HT1A receptor (in words)” value (5-HT1A receptor) was “rather low concentration range”, the “binding to α2A receptors (in words)” value (α2A receptors) was “rather low concentration range” and the “eliminated in urine unchanged, fraction of the dose ingested” value [3] was “up to two thirds”. The plasma half-life [3] was “approximately 6 hours”, the “binding to dopaminergic receptors (in words)” value (dopaminergic receptors) was “did not relevantly bind” and the “5-HT2A receptor binding affinity / binding potency (in words)” value [4] was “very weak”.

For CCN(CC)C(=O)[C@@H]1C=C2c3cccc4[nH]cc(c34)C[C@H]2N(C)C1 [LSD, lysergic acid diethylamide], the “affinity / activity at D2 receptors (in words)” value (D2 receptors) is given as “has activity” and the “agonism / stimulation” value (5-HT2A receptor) is given as “agonists; also recorded: potently stimulates”.

For CN(C)CCc1c[nH]c2ccccc12 [DMT, N,N-dimethyltryptamine], the “agonism / stimulation” value (5-HT2A receptor) is listed as “agonists”.

For COc1cc(CCN)cc(OC)c1OC(F)F.Cl [DFM, 4-Difluoromethoxy-3,5-dimethoxyphenethylamine hydrochloride], the “potency (in words)” value [5] was “relatively potent”.

With COc1cc(CCN)cc(OC)c1OCC(F)(F)F.Cl [TFE, 3,5-Dimethoxy-4-(2,2,2-trifluoroethoxy)phenethylamine hydrochloride] the “potency (in words)” value [5] was “relatively potent”.

For CN(C)CCc1c[nH]c2cccc(O)c12 [Psilocin], the “interaction with / inhibition of SERT (in words)” value (5-HT transporter (SERT)) is listed as “inhibits” and the “agonism / stimulation” value (5-HT2A receptor) is listed as “stimulates”.
